Laboratory results as given in paper PMC9181126, “Design, Synthesis, Molecular Docking Analysis and Biological Evaluations of 4-[(Quinolin-4-yl)amino]benzamide Derivatives as Novel Anti-Influenza Virus Agents” (International Journal of Molecular Sciences, 2022).
Where “and” joins values, the source holds several entries; their conditions need not be identical. Equal entries are not always repeated.

Legend:
[1] = tested on: influenza virus A/WSN/33 (H1N1); test: organism not typed; format: cell-based; conditions: MDCK, 72 h; for EC50: read-out: Cytopathic Effect Assay (A/WSN/33, H1N1) EC50; for inhibition at 12.5 µM / inhibition at 25 µM / inhibition at 50 µM / inhibition at 100 µM: H1N1|WSN, read-out: Antiviral activity in CPE assay
[2] = tested on: influenza virus A/WSN/33 (H1N1); test: Plaque inhibition assay in MDCK cells; format: cell-based; conditions: MDCK, read-out: Plaque Inhibition Assay (A/WSN/33, H1N1) Inhibition Rate; for inhibition at 100 µM: concentration 100 µM; for inhibition at 12.5 µM: concentration 12.5 µM
in vitro [3] = format: cell-based; conditions: human
Description: (§1) The 3-(4,5-dimethylthiazol-2-yl)-2,5-diphenyltetrazolium bromide (MTT) method was performed to assess the cytotoxicity of target compounds in MDCK cells and HEK293T cells. Firstly, MDCK cells or HEK293T cells were seeded into the 96-well plate. Then, the media containing test compounds replaced the growth media after 48 h. Incubate MDCK cells or HEK293T cells with test compounds for 72 h at 37 °C in a humidified 5% CO2 incubator. Later, MTT solution (5 mg/mL in PBS) was added into each well and plates were incubated for 4 h at 37 °C. Then, add a solubilization solution to lyse cells. Finally, absorbance was read at 620 nm using an ELISA plate reader (Tecan Sunrise) after 3 h of further incubation at 37 °C. We set the values obtained from the wells treated with only DMSO as 100% of viable cells.

HEK293T cells = test: in vitro; format: cell-based; conditions: human, 72 h
Description: as §1

MDCK cells = test: in vitro; format: cell-based, canine; conditions: dog, 72 h
Description: as §1

in vitro [4] = format: cell-based, canine; conditions: dog
Description: as §1

PA-PB1 endonuclease = tested on: PA-PB1 endonuclease; design: method as in supplement 1-7; conditions: training and test set compounds collected from literature; ref supplement 1-7; read-out: IC50 value Experimental (PA-PB1 endonuclease inhibitors); cited from earlier work

SMILES	EC50 [1] [µM]	melting point [°C]	CC50 at 72 h (in vitro [3]) [µM]	HEK293T cells survival rate (HEK293T cells; 3.125 µmol·L−1) [%]	HEK293T cells survival rate (HEK293T cells; 6.25 µmol·L−1) [%]	HEK293T cells survival rate (HEK293T cells; 12.5 µmol·L−1) [%]	HEK293T cells survival rate (HEK293T cells; 25 µmol·L−1) [%]	HEK293T cells survival rate (HEK293T cells; 50 µmol·L−1) [%]	HEK293T cells survival rate (HEK293T cells; 100 µmol·L−1) [%]	inhibition at 12.5 µM [1] [%]	inhibition at 25 µM [1] [%]	inhibition at 50 µM [1] [%]	inhibition at 100 µM [1] [%]	MDCK cells survival rate (MDCK cells; 12.5 µmol·L−1) [%]	MDCK cells survival rate (MDCK cells; 25 µmol·L−1) [%]	MDCK cells survival rate (MDCK cells; 50 µmol·L−1) [%]	MDCK cells survival rate (MDCK cells; 100 µmol·L−1) [%]	CC50 at 72 h (in vitro [4]) [µM]	IC50 (PA-PB1 endonuclease)	also measured
O=C(O)c1ccc(Nc2ccnc3cc(C(F)(F)F)ccc23)cc1 [4-{[7-(Trifluoromethyl)quinolin-4-yl]amino}benzoic acid]	22.9	323.7 to 324.9	–	–	–	–	–	–	–	–	–	–	–	–	–	–	–	–	–	inhibition at 50 µM ([2]; concentration 50 µM): 50%
CCCNC(=O)c1ccc(Nc2ccnc3cc(C(F)(F)F)ccc23)cc1 [Compound G03, N-Propyl-4-{[7-(trifluoromethyl)quinolin-4-yl]amino}benzamide]	10 ± 1.9	242.5 to 243.4	> 100	98.97±9.80	89.61±8.87	97.78±4.47	91.10±7.09	84.12±2.84	74.22±4.02	54.9 ± 4.62	56.7 ± 11.7	70.3 ± 9.33	78.7 ± 8.35	107.23±8.32	128.70±3.04	132.67±1.65	144.22±4.46	> 100	–	inhibition at 100 µM [2]: < 10%
CCN(CC)CCCNC(=O)c1ccc(Nc2ccnc3cc(C(F)(F)F)ccc23)cc1 [Compound G06, N-[3-(Diethylamino)propyl]-4-{[7-(trifluoromethyl)quinolin-4-yl]amino}benzamide]	> 100	216.5 to 219.3	> 100	107.15±2.76	90.35±0.85	96.59±4.26	85.50±2.49	85.25±2.63	76.47±9.94	16.7 ± 1.15	13.1 ± 0.69	12.8 ± 0.69	11.2 ± 0.23	95.22±3.96	96.67±0.91	84.01±5.28	79.75±2.72	> 100	–	inhibition at 12.5 µM [2]: < 10%
O=C(NCCCN1CCOCC1)c1ccc(Nc2ccnc3cc(C(F)(F)F)ccc23)cc1 [Compound G08, N-(3-Morpholinopropyl)-4-{[7-(trifluoromethyl)quinolin-4-yl]amino}benzamide]	> 100	207.3 to 209.1	> 100	100.86±3.39	97.00±3.10	95.72±3.30	95.56±2.29	98.07±1.80	112.13±1.41	44.3 ± 3.44	45.6 ± 9.4	31.1 ± 8.71	15.4 ± 0.23	95.86±1.24	76.43±4.79	75.20±0.25	78.41±2.97	> 100	–	inhibition at 25 µM ([2]; concentration 25 µM): 11.5%
O=C(NC1CCCCC1)c1ccc(Nc2ccnc3cc(C(F)(F)F)ccc23)cc1 [Compound G09, N-Cyclohexyl-4-{[7-(trifluoromethyl)quinolin-4-yl]amino}benzamide]	> 100	236.5 to 237.3	> 100	106.48±6.90	98.20±3.74	92.83±3.70	96.79±0.62	101.55±2.23	81.22±3.80	31.9 ± 0.69	22.9 ± 3.9	21.4 ± 0.92	23.2 ± 3.9	156.36±6.13	124.74±4.87	130.46±12.65	133.61±3.89	> 100	–	inhibition at 12.5 µM [2]: 46.9%
O=C(NC1CCC(O)CC1)c1ccc(Nc2ccnc3cc(C(F)(F)F)ccc23)cc1 (stereo not drawn) [Compound G10, N-(4-Hydroxycyclohexyl)-4-{[7-(trifluoromethyl)quinolin-4-yl]amino}benzamide]	10.4 ± 0.22	324 to 325	> 100	108.01±12.84	104.56±4.92	98.12±8.96	98.50±8.84	99.09±8.41	109.24±7.99	48.9 ± 2.01	58 ± 1.69	66.2 ± 2.87	63.8 ± 5.18	84.64±7.10	109.11±15.21	127.95±8.15	110.17±2.79	> 100	–	inhibition at 100 µM [2]: 7.41%
O=C(NCc1ccccc1)c1ccc(Nc2ccnc3cc(C(F)(F)F)ccc23)cc1 [Compound G11, N-Benzyl-4-{[7-(trifluoromethyl)quinolin-4-yl]amino}benzamide]	7.17 ± 1.53	263.4 to 265.8	> 100	129.49±22.76	101.78±7.08	105.25±12.82	108.76±5.63	103.77±9.35	86.44±8.60	47.7 ± 9.63	52.4 ± 3.44	44.1 ± 1.38	47.3 ± 0.92	148.07±0.17	123.28±5.69	127.54±0.33	137.86±9.32	> 100	–	inhibition at 100 µM [2]: 50%
Cc1ccccc1N1CCN(C(=O)c2ccc(Nc3ccnc4cc(C(F)(F)F)ccc34)cc2)CC1 [Compound G13, [4-(O-tolyl)piperazin-1-yl]{4-{[7-(trifluoromethyl)quinolin-4-yl]amino}phenyl}methanone]	> 100	194.7 to 195.6	> 100	99.14±6.42	96.29±4.65	89.92±2.14	88.23±4.29	80.60±2.01	81.89±2.67	27 ± 2.2	33.1 ± 4.47	36.9 ± 4.41	34.3 ± 7.15	89.39±3.87	87.73±16.36	92.20±10.16	65.91±7.51	> 100	–	inhibition at 100 µM [2]: < 10%
O=C(c1ccc(Nc2ccnc3cc(C(F)(F)F)ccc23)cc1)N1CCN(c2cccc(C(F)(F)F)c2)CC1 [Compound G16, {4-[3-(Trifluoromethyl)phenyl]piperazin-1-yl}{4-{[7-(trifluoromethyl)quinolin-4-yl]amino}phenyl}methanone]	> 100	217 to 218.5	> 100	89.31±3.06	79.52±2.87	80.26±3.54	75.35±5.51	70.68±3.36	66.51±2.68	15.7 ± 1.33	36.8 ± 3.16	33.8 ± 2.71	45.7 ± 2.09	83.03±1.26	85.52±2.56	92.23±7.81	103.91±10.21	> 100	–	–
Cc1cc(-c2ccccc2)n2nc(C(=O)Nc3sc4c(c3C(N)=O)CCCCC4)nc2n1 [Compound H01]	–	–	–	–	–	–	–	–	–	–	–	–	–	–	–	–	–	–	1.1 µM	–
NC(=O)c1c(NC(=O)c2nc3nc(-c4ccccc4)cc(C(F)(F)F)n3n2)sc2c1CCCC2 [Compound H02, N-(3-carbamoyl-4,5,6,7-tetrahydrobenzo[b]thiophen-2-yl)-5-phenyl-7-(trifluoromethyl)-[1,2, 4]triazolo[1,5-a]pyrimidine-2-carboxamide]	–	–	–	–	–	–	–	–	–	–	–	–	–	–	–	–	–	–	7.5 µM and 6.2 µM	–
Cc1cc(-c2ccccc2)n2nc(C(=O)Nc3sc4c(c3C(N)=O)CCC4)nc2n1 [Compound H03]	–	–	–	–	–	–	–	–	–	–	–	–	–	–	–	–	–	–	6.2 µM and 7.5 µM	–
CCC(C)NC(=O)c1ccccc1NC(=O)c1cccc(S(=O)(=O)Nc2ccccc2)c1 (stereo not drawn) [Compound H04]	–	–	–	–	–	–	–	–	–	–	–	–	–	–	–	–	–	–	9.2 µM	–
O=C1c2ccccc2C(=O)c2c1cc(Nc1ccccc1)c1nsnc21 [Compound H10]	–	–	–	–	–	–	–	–	–	–	–	–	–	–	–	–	–	–	9.5 µM	–
